Test results: publication PMC7878891 (Scientific Reports, 2021)

What was measured:
[1] = target: PL^proCoV2 (recombinant SARS-CoV-2 PL^pro) (Severe acute respiratory syndrome coronavirus 2, UniProt P0DTD1); assay type: biochemical; conditions: for IC50: read-out: IC50 toward PL^proCoV2
[2] = target: PL^proSARS (recombinant SARS-CoV-1 PL^pro) (Severe acute respiratory syndrome coronavirus, UniProt P0C6X7); assay: biochemical; assay type: biochemical
PL^proCoV2 = PL^proCoV2 (Severe acute respiratory syndrome coronavirus 2, UniProt P0DTD1); assay type: biochemical, SARS-CoV-2
PL^proSARS = PL^proSARS (Severe acute respiratory syndrome coronavirus, UniProt P0C6X7); assay type: biochemical, SARS-CoV-1
CoV2 = conditions: read-out: EC50 antiviral activity in cell-based assay; cited from earlier work

Structure (SMILES): O=c1c2ccccc2[se]n1-c1ccccc1 [ebselen, 2-Phenyl-1,2-benzisoselenazol-3(2H)-one]
- Mechanism of inhibition of PL^proCoV2 [1]: irreversible
- Mechanism of inhibition of PL^proSARS [2]: irreversible
- IC50 ([2]; IC50 PL^proSARS 60 min incubation): 8450 ± 960 nM
- IC50 ([2]; IC50 PL^proSARS no incubation): > 200000 nM
- Reactivation of PL^proCoV2 after dialysis (PL^proCoV2): reactivation was not observed
- Reactivation of PL^proSARS after dialysis (PL^proSARS): reactivation was not observed
- EC50 (CoV2): 4670 nM

Structure (SMILES): O=C(Nc1ccccc1O)c1ccccc1[Se][Se]c1ccccc1C(=O)Nc1ccccc1O [2d, Bis[2-(2-hydroxyphenylcarbamoyl)phenyl] diselenide]
- IC50 [1]: 339 ± 109 nM

Structure (SMILES): O=c1c2ccccc2[se]n1-c1ccccc1O [1d, 2-(2-Hydroxyphenyl)-1,2-benzisoselenazol-3(2H)-one]
- Inhibition of PL^proCoV2 at 2 μM [1]: fully
- IC50 [1]: 236 nM

Structure (SMILES): COc1ccccc1-n1[se]c2ccccc2c1=O [1e, 2-(2-Methoxyphenyl)-1,2-benzisoselenazol-3(2H)-one]
- Inhibition of PL^proCoV2 at 2 μM [1]: fully
- IC50 [1]: 256 ± 35 nM

Structure (SMILES): COc1ccccc1NC(=O)c1ccccc1[Se][Se]c1ccccc1C(=O)Nc1ccccc1OC [2e, Bis[2-(2-methoxyphenylcarbamoyl)phenyl] diselenide]
- IC50 [1]: 263 ± 121 nM
